Assays:
corn earworm moths [1] = assay: Single component floral lures, 2000 field season (Example 3); format: in vivo, Helicoverpa zea; settings: Universal Moth Traps baited with individual floral chemicals from polypropylene vials
Source text: (§1) Materials and Methods. The Universal Moth Trap (Great Lakes IPM, Vestaburg, Mich.) was used in all tests, with a 6 cm^2 piece of Vaportape® (Hercon Environmental Inc., Emigsville, Pa.) in each trap bucket to kill captured moths. The trap is an opaque white bucket with a yellow cone and green lid. Traps were hung from stakes in the weedy borders around irrigated fields in the vicinity of sweet corn and alfalfa, near Mattawa, Grant County, Wash. Traps were placed 12 meters apart in a north to south orientation, because of prevailing westerly winds.
(§2) A randomized complete block design was used, and treatments (trap lures) were randomized each time that traps were checked. Traps were checked twice per week, and insects were placed in pre-labeled plastic bags for transport to the laboratory where they were stored in a freezer until processed. Moths were sorted by sex and identified to species with the aid of a dissecting microscope.
(§3) Unless reported otherwise, polypropylene vials (8 ml) were used as dispensers for release of chemicals tested following the methods of Landolt et al., 2001, supra. Chemicals (5 ml) were pipetted onto cotton in the bottom of the vial. Holes made in the lids (3 mm diameter) permitted the escape of volatilized chemicals from the vials. Vials were suspended with wire near the bottom of the inside of the bucket of the trap. When more than one chemical was used to bait a trap, a separate vial was used for each chemical. Dispensers were replaced every 2 weeks when experiments lasted longer than two weeks.
During the 2000 field season, seven floral compounds were evaluated for attractiveness to corn earworm moths, testing them as lures in traps. These compounds were phenylacetaldehyde, benzyl alcohol, benzyl aldehyde, benzyl acetate, cis jasmone, linalool and phenethyl alcohol. A randomized complete block design was used, with 5 replicate blocks set up. Each block included an unbaited trap as a control.
(§4) Trap catch data were subjected to an ANOVA and treatment means were separated using Tukey's test, following a significant F value in the ANOVA.

corn earworm moths [2] = assay: Double component Test 7, linalool, benzyl aldehyde, phenethyl alcohol combinations; format: in vivo, Helicoverpa zea; settings: single and double component combinations dispensed from vials
Source text: as §1, §2, §3
Seven double component tests were conducted. For each two-component combinations, two vials were placed in the bucket of the trap; one vial containing phenylacetaldehyde and the other vial containing the second chemical (excepting the use of septa as dispensers for the third double component test that involved terpenes. Five replicate blocks, each including one of each of the different two-chemical combinations as well as phenylacetaldehyde alone, were set up and were maintained for two weeks.
Test 7. The combinations of linalool plus benzyl aldehyde, phenethyl alcohol plus benzaldehyde, and phenethyl alcohol plus linalool were compared to phenylacetaldehyde alone, linalool alone, benzyl aldehyde alone and phenethyl alcohol alone.
as §4

alfalfa looper moth = settings: Landolt et al., 2001; cited from earlier work
alfalfa looper moths [3] = assay: Double component blends, benzyl acetate plus, trap captures; format: in vivo, Autographa californica; settings: Universal moth traps; benzyl acetate (BA) alone, PAA alone, or BA plus second chemical in separate vials
Source text: (§5) Materials and Methods. A multi-colored version of the Universal Moth Trap, or UniTrap® (AgriSense, sold by Great Lakes IPM, Vestaburg, Mich.), was used in all experiments. The trap is an opaque white bucket beneath a yellow cone and a green lid. A 2.5×2.5 cm piece of Vaportape® (Hercon Environmental, Emigsville, Pa.) was placed in each trap bucket as a killing agent. Traps were hung from stakes at a height of about one meter in uncultivated areas adjacent to fields of alfalfa or directly within alfalfa fields. Traps were placed 12 meters apart in a north to south orientation, because of prevailing westerly winds.
(§6) For all experiments, a randomized complete block design was used, and treatments were randomized each time traps were checked. Traps were checked twice per week, at which time all insects in the traps were placed in pre-labeled plastic bags for transport to the laboratory. Moths were identified and sorted by sex under a dissecting microscope.
Polypropylene vials (8 ml) were used as dispensers for release of chemicals tested, following the methods used in Landolt et al., 2001, supra. Chemicals (5 ml) were pipetted onto cotton in the bottom of the vial. Holes made in vial lids (3 mm diameter) permitted the escape of volatilized chemicals. Vials were suspended with wire near the bottom of the inside of the bucket of the UniTrap®. […]

corn earworm moths [4] = assay: Double component Test 6, combinations with benzyl alcohol; format: in vivo, Helicoverpa zea; settings: single and double component combinations dispensed from vials
Source text: as §1, §2
Unless reported otherwise, polypropylene vials (8 ml) were used as dispensers for release of chemicals tested following the methods of Landolt et al., 2001, supra. Chemicals (5 ml) were pipetted onto cotton in the bottom of the vial. Holes made in the lids (3 mm diameter) permitted the escape of volatilized chemicals from the vials. Vials were suspended with wire near the bottom of the inside of the bucket of the trap. […]

corn earworm moths [5] = assay: Single component floral lures, 2001 field season (Example 3); format: in vivo, Helicoverpa zea; settings: Universal Moth Traps baited with individual floral chemicals from polypropylene vials
Source text: as §1, §2
β-Pinene, R-(+)-alpha-pinene, (S)-(−)-limonene, β-myrcene, phenylacetaldehyde, methyl salicylate, and methyl-2-methoxybenzoate were purchased from Aldrich Chemical Inc. (Milwaukee, Wis.). (R)-(+)-limonene was purchased from Acros Chemical Co. (Milwaukee, Wis.).
as §3
A second comparison of floral compounds was made in the 2001 field season, for attractiveness to corn earworm moths. These chemicals were phenylacetaldehyde, methyl salicylate, racemic limonene, methyl-2-methoxybenzoate, […], (S)-beta pinene, and β-myrcene. Five replicate blocks, each including these seven chemical treatments and an unbaited trap as a control, were set up on 3 Jul. 2001 and were maintained until 27 Jul. 2001.
as §4

cabbage looper moths = assay: Single component floral lures, Universal moth trap captures (Example 2); format: in vivo, Trichoplusia ni; settings: Universal moth traps baited with individual floral chemicals dispensed from polypropylene vials (5 ml, 3 mm hole)
Source text: as §5, §6
(§7) β-Pinene, (R)-(+)-α-pinene, (S)-(−)-limonene, β-myrcene, phenylacetaldehyde, methyl salicylate, and methyl-2-methoxybenzoate were purchased from Aldrich Chemical Co. (Milwaukee, Wis.). (R)-(+)-limonene was purchased from Acros Chemical Co. (Milwaukee, Wis.).
(§8) Polypropylene vials (8 ml) were used as dispensers for release of chemicals tested, following the methods used in Landolt et al., 2001, supra. Chemicals (5 ml) were pipetted onto cotton in the bottom of the vial. Holes made in vial lids (3 mm diameter) permitted the escape of volatilized chemicals. Vials were suspended with wire near the bottom of the inside of the bucket of the UniTrap®. When more than one chemical was used to bait a trap, a separate vial was used for each chemical. Dispensers were replaced after two weeks when experiments lasted longer than two weeks.
(§9) A comparison was made of moth captures in traps baited with seven different chemicals that are emitted by flowers. These chemicals were phenylacetaldehyde, (included as a positive control and standard for comparison), methyl salicylate, racemic limonene, methyl-2-methoxybenzoate, (R)-(+)-α-pinene, (S)-(−)-β-pinene, and β-myrcene. Five replicate blocks, each including these seven chemical treatments and an unbaited trap, were set up on 18 May 2001 and were maintained until 1 Jun. 2001. The study was conducted at an experimental farm about 20 km east of the town of Moxee, in Yakima County, Wash. The same study was conducted again 3-27 July 2001 near Mattawa, Grant County, Wash., in order to take advantage of cabbage looper populations that became apparent in mid summer.
as §4

alfalfa looper moths [6] = assay: as above; format: in vivo, Autographa californica; settings: Universal moth traps baited with individual floral chemicals dispensed from polypropylene vials (5 ml, 3 mm hole)
Source text: as §5, §6, §7, §8, §9, §4

corn earworm moths [7] = settings: Cantelo and Jacobson, 1979b; cited from earlier work

| SMILES | Mean (±SE) numbers of corn earworm moths captured (corn earworm moths [1]) | Mean (±SE) numbers of corn earworm moths captured (corn earworm moths [2]) | Attraction of alfalfa looper moths (capture in baited traps) (alfalfa looper moth) | Mean (±SE) numbers of alfalfa looper moths captured (alfalfa looper moths [3]) | Mean (±SE) numbers of corn earworm moths captured (corn earworm moths [4]) | Mean (±SE) numbers of corn earworm moths captured (corn earworm moths [5]) | Mean (±SE) numbers of cabbage looper moths captured (cabbage looper moths) | Mean (±SE) numbers of alfalfa looper moths captured (alfalfa looper moths [6]) | Attraction of corn earworm moths (corn earworm moths [7]) |
| --- | --- | --- | --- | --- | --- | --- | --- | --- | --- |
| O=Cc1ccccc1 [Benzyl aldehyde, benzyl aldehyde] | 0.05 ± 0.05a | 0.05 ± 0.05a | not attracted |  |  |  |  |  |  |
| OCCc1ccccc1 [Phenethyl alcohol, phenethyl alcohol] | 0.00 ± 0.00 | 0.05 ± 0.05a | not attracted |  |  |  |  |  |  |
| CC(=O)OCc1ccccc1 [benzyl acetate] | 0.00 ± 0.00 |  | attracted | 0.37 ± 0.12c |  |  |  |  |  |
| OCc1ccccc1 [benzyl alcohol] | 0.15 ± 0.08a |  | not attracted |  | 0.10 ± 0.07a |  |  |  |  |
| CC/C=C\CC1=C(C)CCC1=O [cis-jasmone] | 0.00 ± 0.00 |  | not attracted |  |  |  |  |  |  |
| C=C(C)[C@H]1CC=C(C)CC1 [limonene] |  |  |  |  |  | 0.05 ± 0.05a | 0.0 ± 0.0a | 0.0 ± 0.0a |  |
| C=CC(C)(O)CCC=C(C)C (centres unmarked) [linalool] | 0.00 ± 0.00 | 0.00 ± 0.00a | not attracted |  |  |  |  |  |  |
| COC(=O)c1ccccc1O [methyl salicylate] |  |  |  |  |  | 0.10 ± 0.05a | 0.1 ± 0.1a | 0.1 ± 0.0a |  |
| COC(=O)c1ccccc1OC [methyl-2-methoxybenzoate] |  |  |  |  |  | 3.90 ± 1.69b | 0.6 ± 0.2b | 0.1 ± 0.0a |  |
| O=CCc1ccccc1 [phenylacetaldehyde] | 0.45 ± 0.22b | 1.75 ± 0.43c | attracted | 0.83 ± 0.21e | 2.25 ± 0.35c | 2.35 ± 0.62b | 7.2 ± 1.0c | 4.5 ± 0.5c | attract |
| CC1=CC[C@@H]2C[C@H]1C2(C)C [α-pinene, (R)-(+)-α-pinene] |  |  |  |  |  | 0.08 ± 0.04a | 0.1 ± 0.0a | 0.0 ± 0.0a |  |
| C=CC(=C)CCC=C(C)C [β-myrcene] |  |  |  |  |  | 0.20 ± 0.10a | 0.1 ± 0.1a | 0.4 ± 0.1b |  |
| C=C1CC[C@H]2C[C@@H]1C2(C)C [β-pinene, (S)-(−)-β-pinene] |  |  |  |  |  | 0.03 ± 0.03a | 0.0 ± 0.0a | 0.0 ± 0.0a |  |
